Reference: ChEMBL document CHEMBL3297723, “Ethyl 1,8-naphthyridone-3-carboxylates downregulate human papillomavirus-16 E6 and E7 oncogene expression” (J Med Chem, 2014)
Active and inactive are the calls of the source. The rule behind the calls is not given here.

How the values were obtained:
[1] = (§1) Inhibition of HPV-16 LCR transcriptional activity in human P21 cells after 24 hrs by luciferase reporter gene assay; assay type: cell-based; settings: Alphapapillomavirus 9, P21, 24 h
P21 [2] = assay: as §1; assay type: cell-based; settings: Alphapapillomavirus 9
P21 [3] = assay: Inhibition of HPV-16 LCR transcriptional activity in human P21 cells at 100 uM after 24 hrs by luciferase reporter gene assay; assay type: cell-based; settings: Alphapapillomavirus 9
[4] = Cytotoxicity against human P21 cells assessed as inhibition of cell viability after 24 hrs by CellTiter96 assay; assay type: cell-based
P21 [5] = assay: Inhibition of HPV-16 LCR transcriptional activity in human P21 cells at 30 uM after 24 hrs by luciferase reporter gene assay; assay type: cell-based; settings: Alphapapillomavirus 9
[6] = Cytotoxicity against human CaSki cells assessed as inhibition of cell proliferation at 10 uM after 24 hrs by CellTiter96 assay; assay type: cell-based; settings: ca-ski
[7] = Selectivity index, ratio of CC50 for human P21 cells to IC50 for HPV-16 LCR transcriptional activity in human P21 cells; assay type: functional
[8] = Drug uptake in human CaSki cells at 10 uM after 1 hr by reverse-phase HPLC analysis; assay type: ADME, cell-based; settings: ca-ski
Ca-Ski [9] = assay: Inhibition of LCR-mediated E6 mRNA expression in HPV-16-positive human CaSki cells at 10 uM after 24 hrs by RT-PCR analysis; assay type: cell-based; settings: Alphapapillomavirus 9
Ca-Ski [10] = assay: Inhibition of LCR-mediated E7 mRNA expression in HPV-16-positive human CaSki cells at 10 uM after 24 hrs by RT-PCR analysis; assay type: cell-based; settings: Alphapapillomavirus 9
[11] = Drug uptake in human CaSki cells at 10 uM after 16 hrs by reverse-phase HPLC analysis; assay type: ADME, cell-based; settings: ca-ski
[12] = tested on: Vesicular stomatitis virus; assay: Antiviral activity against VSV infected in african green monkey Vero cells assessed as protection against virus-induced cytopathogenicity; assay type: functional, organism-based
Human alphaherpesvirus 2 = assay: Antiviral activity against HSV2 infected in african green monkey Vero cells assessed as protection against virus-induced cytopathogenicity; assay type: functional, organism-based
Rotavirus = assay: Antiviral activity against HRV infected in […] cells assessed as protection against virus-induced cytopathogenicity; assay type: functional, organism-based
Human orthopneumovirus = assay: Antiviral activity against RSV infected in human Hep2 cells assessed as protection against virus-induced cytopathogenicity; assay type: functional, organism-based; settings: human respiratory syncytial virus; HEp-2
[13] = tested on: Human immunodeficiency virus 1; assay: Antiviral activity against HIV-1 3B infected in human MT4 cells assessed as protection against virus-induced cytopathogenicity; assay type: functional, organism-based

| Compound | IC50 [1] [µM] | inhibition (P21 [2]) | inhibition (P21 [3]) [%] | CC50 at 24 h [4] [µM] | inhibition (P21 [5]) [%] | Activity [6] | Ratio CC50/IC50 [7] | Drug uptake [8] | inhibition (Ca-Ski [9]) [%] | inhibition (Ca-Ski [10]) [%] | Drug uptake [11] [%] | Activity [12] | Activity (Human alphaherpesvirus 2) | Activity (Rotavirus) | Activity (Human orthopneumovirus) | Activity [13] |
| --- | --- | --- | --- | --- | --- | --- | --- | --- | --- | --- | --- | --- | --- | --- | --- | --- |
| CCOC(=O)c1cn(Cc2cccc(Cl)c2F)c2nc(N3CCN(c4ccccn4)CC3)ccc2c1=O | 1.12 | Dose-dependent effect | 93.1 | > 100 | 89.2 | Non-toxic | >89.2 | – | – | – | – | – | – | – | – | – |
| CCOC(=O)c1cn(Cc2cccc(Cl)c2F)c2nc(N3CCN(c4nc5ccccc5o4)CC3)ccc2c1=O | 0.39 | – | 83.9 | > 100 | 88.1 | – | >256 | – | – | – | – | – | – | – | – | – |
| CCOC(=O)c1cn(CCc2ccccn2)c2nc(N3CCN(c4nc5ccccc5s4)CC3)ccc2c1=O | 1.05 | – | 100 | 17.1 | 87 | – | 16.2 | – | – | – | – | – | – | – | – | – |
| CCOC(=O)c1cn(Cc2cccc(Cl)c2F)c2nc(N3CCN(c4ccc5ccccc5n4)CC3)ccc2c1=O | 0.21 | – | 93.7 | 59.3 | 92.3 | Non-toxic | 282 | Not Active | 61.5 | 57.4 | 40 | – | – | – | – | – |
| CCOC(=O)c1cn(Cc2ccc3[nH]ccc3c2)c2nc(N3CCN(c4nc5ccccc5s4)CC3)ccc2c1=O | 0.13 | – | 90.2 | > 100 | 93.6 | Non-toxic | >769 | – | – | – | – | – | – | – | – | – |
| CCOC(=O)c1cn(CCc2ccc(Cl)cc2)c2nc(N3CCN(c4nc5ccccc5s4)CC3)ccc2c1=O | – | – | 50.4 | – | 49.6 | – | – | – | – | – | – | – | – | – | – | – |
| CCOC(=O)c1cn(Cc2ccccn2)c2nc(N3CCN(c4nc5ccccc5s4)CC3)ccc2c1=O | 5.3 | – | 73.4 | 34.6 | 63.1 | – | 6.5 | – | – | – | – | – | – | – | – | – |
| CCOC(=O)c1cn(Cc2ccc(C(F)(F)F)cc2)c2nc(N3CCN(c4nc5ccccc5s4)CC3)ccc2c1=O | 10.9 | – | 89.3 | 78.2 | 67.5 | – | 7.16 | – | – | – | – | – | – | – | – | – |
| O=C(O)c1cn(Cc2cccc(Cl)c2F)c2nc(N3CCN(c4nccs4)CC3)ccc2c1=O | – | – | 2.1 | – | 7.39 | Non-toxic | – | 20% | – | – | 63 | – | – | – | – | – |
| CCOC(=O)c1cn(Cc2cccc(Cl)c2F)c2nc(N3CCN(c4nccs4)CC3)ccc2c1=O | 1.21 | – | 99.7 | 25.3 | 98 | Non-toxic | 20.9 | Not Active | 71.7 | 72.7 | 70 | – | – | – | – | – |
| O=C(O)c1cn(Cc2cccc(Cl)c2F)c2nc(N3CCN(c4nc5ccccc5s4)CC3)ccc2c1=O | – | – | 56 | – | 38.3 | Non-toxic | – | 20% | – | – | 35 | – | – | – | – | – |
| CCOC(=O)c1cn(Cc2ccccc2)c2nc(N3CCN(c4nc5ccccc5s4)CC3)ccc2c1=O | 0.23 | – | 98.1 | 61.7 | 98.2 | Non-toxic | 268 | – | – | – | – | – | – | – | – | – |
| O=C(O)c1cn(Cc2cccc(Cl)c2F)c2nc(N3CCN(c4ccc5ccccc5n4)CC3)ccc2c1=O | 2.86 | – | 100 | 17.6 | 99.3 | Non-toxic | 6.1 | 20% | – | – | 38 | – | – | – | – | – |
| CCOC(=O)c1cn(Cc2cccc(Cl)c2F)c2nc(N3CCN(c4nc5ccccc5s4)CC3)ccc2c1=O | 0.26 | – | 94.9 | > 100 | 82.8 | Non-toxic | >385 | Not Active | – | – | 15 | Active | Active | inactive | Active | inactive |
| O=C(O)c1cn(Cc2ccccn2)c2nc(N3CCN(c4nc5ccccc5s4)CC3)ccc2c1=O | – | – | 61 | – | 24 | – | – | – | – | – | – | – | – | – | – | – |
| CCOC(=O)c1cn(Cc2cccc(Cl)c2)c2nc(N3CCN(c4nc5ccccc5s4)CC3)ccc2c1=O | 2.62 | – | 96 | > 100 | 96 | Non-toxic | >38.1 | – | – | – | – | – | – | – | – | – |
| CCOC(=O)c1cn(Cc2ccccc2F)c2nc(N3CCN(c4nc5ccccc5s4)CC3)ccc2c1=O | 4.18 | – | 75.6 | > 100 | 88.6 | – | >23.9 | – | – | – | – | – | – | – | – | – |
| O=C(O)c1cn(CCc2ccccn2)c2nc(N3CCN(c4nc5ccccc5s4)CC3)ccc2c1=O | – | – | 0 | – | 0 | – | – | – | – | – | – | – | – | – | – | – |
| O=C(O)c1cn(Cc2ccccc2)c2nc(N3CCN(c4nc5ccccc5s4)CC3)ccc2c1=O | 4.55 | – | 100 | 69.6 | 100 | Non-toxic | 15.2 | – | – | – | – | – | – | – | – | – |
| CCOC(=O)c1cn(Cc2nc3ccccc3[nH]2)c2nc(N3CCN(c4nc5ccccc5s4)CC3)ccc2c1=O | – | – | 45.5 | – | 38.3 | – | – | – | – | – | – | – | – | – | – | – |
| CCOC(=O)c1cn(Cc2ccc(Cl)cc2)c2nc(N3CCN(c4nc5ccccc5s4)CC3)ccc2c1=O | 2.37 | – | 90 | > 100 | 90 | Non-toxic | >42.1 | – | – | – | – | – | – | – | – | – |
| O=C(O)c1cn(Cc2cccc(Cl)c2F)c2nc(N3CCN(c4ccccn4)CC3)ccc2c1=O | – | – | 25.8 | – | 30.5 | Non-toxic | – | – | – | – | – | – | – | – | – | – |
